The results in this text go back to patent EP0542497A1, “Heterocyclic compounds” (THE WELLCOME FOUNDATION LIMITED, priority 1991, dated 1993).

Test [1] addresses T1, human dihydrofolate reductase (Homo sapiens, UniProt P00374).
T1 sequence (P00374 1-187): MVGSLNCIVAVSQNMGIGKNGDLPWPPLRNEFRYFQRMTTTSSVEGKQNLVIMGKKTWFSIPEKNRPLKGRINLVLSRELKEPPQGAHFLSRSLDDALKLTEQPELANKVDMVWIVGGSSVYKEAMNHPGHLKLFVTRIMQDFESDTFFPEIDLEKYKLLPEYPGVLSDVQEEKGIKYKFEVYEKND
Briefly: DHFR I50, human enzyme. Format: biochemical.

A further test addresses T2, DHFR (Candida albicans, UniProt P22906).
T2 sequence (P22906 1-192): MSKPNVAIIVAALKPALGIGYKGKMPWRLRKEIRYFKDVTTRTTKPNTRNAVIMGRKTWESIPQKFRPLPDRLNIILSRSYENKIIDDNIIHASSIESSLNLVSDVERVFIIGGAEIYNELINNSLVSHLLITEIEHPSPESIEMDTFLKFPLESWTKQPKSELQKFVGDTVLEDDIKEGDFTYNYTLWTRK
Put plainly: biochemical. The conditions noted are these: C.albicans enzyme; read-out: DHFR I50 C.albicans.

pIC50: −log10 of the molar value. Counter-ions that a name gives are not always drawn.

On to `CCCC(CC)n1ccc2c3c(N)nc(N)nc3ccc21` (stereo not shown) [Compound 3, 1,3-Diamino-7-(1-ethylbutyl)-7H-pyrrolo[3,2-f]quinazoline], for which the pIC50 in test [1] is more than 9.00; on DHFR, 8.70.

For the compound `CCCC(CCC)n1ccc2c3c(N)nc(N)nc3ccc21` [Compound 4, 1,3-Diamino-7-(1-propylbutyl)-7H-pyrrolo[3,2-f]quinazoline hydrochloride], the pIC50 in test [1] is more than 8.70; on DHFR, more than 9.00. The matching figures for `CCc1cc2c3c(N)nc(N)nc3ccc2n1C(CC)CC` [Compound 6, 1,3-Diamino-8-ethyl-7-(1-ethylpropyl)-7H-pyrrolo(3,2-f)quinazoline]: more than 9.00 and more than 9.00. The matching figures for `CCC(C)n1ccc2c3c(N)nc(N)nc3ccc21` (stereo not shown) [Compound 7a, 1,3-diamino-7-sec-butyl-7H-pyrrolo(3,2-f)quinazoline]: 7.74 and 8.00. In the case of `CCCC(C)n1ccc2c3c(N)nc(N)nc3ccc21` (stereo not shown) [Compound 7b, 1,3-diamino-7-(1-methylbutyl)-7H-pyrrolo(3,2-f)quinazoline], the pIC50 was 7.96 in test [1] and 8.15 on DHFR. The matching figures for `CCC(C(C)C)n1ccc2c3c(N)nc(N)nc3ccc21` (stereo not shown) [Compound 7c, 1,3-diamino-7-(1-ethyl-2-methylpropyl)-7H-pyrrolo(3,2-f)quinazoline]: more than 8.70 and 8.52. For the compound `CC(C)n1ccc2c3c(N)nc(N)nc3ccc21` [Compound 7d, 1,3-diamino-7-isopropyl-7H-pyrrolo(3,2-f)quinazoline], the values for the pIC50 (in test [1]; at DHFR) were 7.32 and 7.46, respectively. The matching figures for `COCC(COC)n1ccc2c3c(N)nc(N)nc3ccc21` [Compound 7e, 1,3-diamino-7-(2-methoxy-1-methoxymethyl)ethyl-7H-pyrrolo(3,2-f)quinazoline]: 8.08 and 8.05.

In the case of `Nc1nc(N)c2c(ccc3c2ccn3C2CCCCC2)n1` [Compound 7f, 1,3-diamino-7-cyclohexyl-7H-pyrrolo(3,2-f)quinazoline], the pIC50 was 7.36 in test [1] and 8.52 on DHFR. For `Nc1nc(N)c2c(ccc3c2ccn3C2C=CCCC2)n1` (stereo not shown) [Compound 7g, 1,3-diamino-7-(2-cyclohexen-1-yl)-7H-pyrrolo(3,2-f)quinazoline], in that order: 7.48 and 8.22. The matching figures for `Cc1cc2c3c(N)nc(N)nc3ccc2n1C(C)C` [Compound 8a, 1,3-diamino-7-isopropyl-8-methyl-7H-pyrrolo(3,2-f)quinazoline]: 8.05 and 8.40. For `CCC(CC)n1c(COC)cc2c3c(N)nc(N)nc3ccc21` [Compound 9a, 1,3-diamino-7-(1-ethylpropyl)-8-(methoxymethyl)-7H-pyrrolo (3,2-f)quinazoline], in that order: 8.48 and 8.39. `CCCc1cc2c3c(N)nc(N)nc3ccc2n1C(CC)CC` [Compound 9b, 1,3-diamino-7-(1-ethylpropyl)-8-propyl-7H-pyrrolo(3,2-f)quinazoline]: the pIC50 in test [1] is 8.89; at DHFR, 8.74.

As for `CC(C)n1c(C(C)(C)C)cc2c3c(N)nc(N)nc3ccc21` [Compound 9c, 1,3-diamino-8-tert-butyl-7-isopropyl-7H-pyrrolo(3,2-f)quinazoline], the pIC50 (in test [1]; on DHFR) was more than 9.00 each time. Consider `CCC(CC)n1c(C(C)C)cc2c3c(N)nc(N)nc3ccc21` [Compound 9d, 1,3-diamino-7-(1-ethylpropyl)-8-isopropyl-7H-pyrrolo(3,2-f)quinazoline], for which the pIC50 (in test [1]; at DHFR) was more than 9.00 each time. For `CCCCc1cc2c3c(N)nc(N)nc3ccc2n1C(C)(C)C` [Compound 10a, 1,3-diamino-8-butyl-7-tert-butyl-7H-pyrrolo(3,2-f)quinazoline], the pIC50 at DHFR was 8.15.
